Results: the NIST ThermoML archive (doi:10.1016/j.tca.2018.11.018)

Test: xn = mol fraction of the nth substance listed
Conditions: 100 kPa, Liquid; for viscosity: Falling or rolling sphere viscometry; for mass density: Vibrating tube method

CCCC[N+]1(C)CCCCC1.[Br-] [N-butyl-N-methylpiperidinium bromide] + O
Conditions	mass density [kg/m3]	viscosity [mPa·s]
298.15 K, x1 = 0.03	1057.7	1.991
298.15 K, x1 = 0.06	1097.6	3.692
298.15 K, x1 = 0.089	1126.3	6.598
298.15 K, x1 = 0.124	1150.5	12.67
298.15 K, x1 = 0.159	1167.6	21.36
298.15 K, x1 = 0.195	1180.6	35.21
298.15 K, x1 = 0.244	1193.3	69.27
303.15 K, x1 = 0.03	1054.4	1.735
303.15 K, x1 = 0.06	1094.6	3.121
303.15 K, x1 = 0.089	1122.9	5.435
303.15 K, x1 = 0.124	1146.9	10.39
303.15 K, x1 = 0.159	1164	16.98
303.15 K, x1 = 0.195	1176.9	27.19
303.15 K, x1 = 0.244	1189.7	51.06
303.15 K, x1 = 0.271	1195.4	72.65
308.15 K, x1 = 0.03	1051.9	1.529
308.15 K, x1 = 0.06	1091.5	2.676
308.15 K, x1 = 0.089	1119.4	4.553
308.15 K, x1 = 0.124	1143.2	8.531
308.15 K, x1 = 0.159	1160.3	13.62
308.15 K, x1 = 0.195	1173.3	21.32
308.15 K, x1 = 0.244	1186.2	38.65
308.15 K, x1 = 0.271	1191.8	53.78
313.15 K, x1 = 0.03	1049.3	1.359
313.15 K, x1 = 0.06	1088.3	2.321
313.15 K, x1 = 0.089	1116	3.88
313.15 K, x1 = 0.124	1139.6	7.053
313.15 K, x1 = 0.159	1156.7	11.02
313.15 K, x1 = 0.195	1169.7	16.99
313.15 K, x1 = 0.244	1182.6	29.62
313.15 K, x1 = 0.271	1188.3	40.63
318.15 K, x1 = 0.03	1045.6	1.215
318.15 K, x1 = 0.06	1085.1	2.033
318.15 K, x1 = 0.089	1112.4	3.326
318.15 K, x1 = 0.124	1135.9	5.797
318.15 K, x1 = 0.159	1153	9.05
318.15 K, x1 = 0.195	1166	13.74
318.15 K, x1 = 0.244	1179	23.16
318.15 K, x1 = 0.271	1184.7	31.55
323.15 K, x1 = 0.03	1042.7	1.097
323.15 K, x1 = 0.06	1081.8	1.798
323.15 K, x1 = 0.089	1108.8	2.89
323.15 K, x1 = 0.124	1132.2	4.929
323.15 K, x1 = 0.159	1149.3	7.56
323.15 K, x1 = 0.195	1162.4	11.33
323.15 K, x1 = 0.244	1175.4	18.71
323.15 K, x1 = 0.271	1181.2	24.85
328.15 K, x1 = 0.03	1040	0.997
328.15 K, x1 = 0.06	1078.4	1.603
328.15 K, x1 = 0.089	1105.2	2.54
328.15 K, x1 = 0.124	1128.5	4.221
328.15 K, x1 = 0.159	1145.5	6.369
328.15 K, x1 = 0.195	1158.7	9.485
328.15 K, x1 = 0.244	1171.8	15.31
328.15 K, x1 = 0.271	1177.6	20.06
333.15 K, x1 = 0.03	1035.9	0.906
333.15 K, x1 = 0.06	1075	1.441
333.15 K, x1 = 0.089	1101.6	2.248
333.15 K, x1 = 0.124	1124.8	3.656
333.15 K, x1 = 0.159	1141.8	5.446
333.15 K, x1 = 0.195	1155	8.051
333.15 K, x1 = 0.244	1168.2	12.77
333.15 K, x1 = 0.271	1174	16.49
338.15 K, x1 = 0.03	1031.9	0.828
338.15 K, x1 = 0.06	1071.4	1.302
338.15 K, x1 = 0.089	1097.9	2.006
338.15 K, x1 = 0.124	1121	3.199
338.15 K, x1 = 0.159	1138	4.666
338.15 K, x1 = 0.195	1151.3	6.86
338.15 K, x1 = 0.244	1164.5	10.74
338.15 K, x1 = 0.271	1170.4	13.75
343.15 K, x1 = 0.03	1027.2	0.761
343.15 K, x1 = 0.06	1067.6	1.185
343.15 K, x1 = 0.089	1094.1	1.806
343.15 K, x1 = 0.124	1117.2	2.715
343.15 K, x1 = 0.159	1134.3	4.069
343.15 K, x1 = 0.195	1147.6	5.932
343.15 K, x1 = 0.244	1160.9	9.231
343.15 K, x1 = 0.271	1166.8	11.68
348.15 K, x1 = 0.03	1023.3	0.7
348.15 K, x1 = 0.06	1064.1	1.083
348.15 K, x1 = 0.089	1090.4	1.629
348.15 K, x1 = 0.124	1113.4	2.428
348.15 K, x1 = 0.159	1130.5	3.568
348.15 K, x1 = 0.195	1143.8	5.143
348.15 K, x1 = 0.244	1157.2	7.953
348.15 K, x1 = 0.271	1163.2	9.976
